One assay concerns the target T1, human S1P1 receptor (Homo sapiens, UniProt P21453).
T1 construct: expressed in transfected cells; membranes used
Nature of the assay: GTP γ35S binding assay for S1P1 activity. It is filed as biochemical. Particulars: membranes, 30 min at 25° C., read-out: S1P1 EC50 (Activity potency: S1P1 receptor from GTP γ35S). As for the experimental part:
Compounds were tested for S1P1 activity using the GTP γ^35S binding assay. These compounds may be assessed for their ability to activate or block activation of the human S1P1 receptor in cells stably expressing the S1P1 receptor.
GTP γ^35S binding was measured in the medium containing (mM) HEPES 25, pH 7.4, MgCl2 10, NaCl 100, dithitothreitol 0.5, digitonin 0.003%, 0.2 nM GTP γ^35S, and 5 μg membrane protein in a volume of 150 μl. Test compounds were included in the concentration range from 0.08 to 5,000 nM unless indicated otherwise. Membranes were incubated with 100 μM 5′-adenylylimmidodiphosphate for 30 min, and subsequently with 10 μM GDP for 10 min on ice. Drug solutions and membrane were mixed, and then reactions were initiated by adding GTP γ^35S and continued for 30 min at 25° C. Reaction mixtures were filtered over Whatman GF/B filters under vacuum, and washed three times with 3 mL of ice-cold buffer (HEPES 25, pH7.4, MgCl2 10 and NaCl 100). Filters were dried and mixed with scintillant, and counted for ^35S activity using a β-counter. Agonist-induced GTP γ^35S binding was obtained by subtracting that in the absence of agonist. Binding data were analyzed using a non-linear regression method. In case of antagonist assay, the reaction mixture contained 10 nM S1P in the presence of test antagonist at concentrations ranging from 0.08 to 5000 nM.
A general note: GTPγS is a poorly hydrolysed GTP analogue; its binding reports G protein activation.

In a further assay the test system is blood lymphocytes. Nature of the assay: Lymphopenia Assay in Mice (blood lymphocyte depletion). As to conditions: FIG. 1. It is filed as in vivo, female C57BL6 mice. As for the experimental part: A lymphopenia assay in mice; as previously described, was employed to measure the in vivo blood lymphocyte depletion after dosing with the test compound: [3-({4-[(5-phenylpentyl)oxy]-3-(2-thienyl)benzyl}amino)propyl]phosphonic acid Compound 6. This S1P1 modulator, [3-({4-[(5-phenylpentyl)oxy]-3-(2-thienyl)benzyl}amino)propyl]phosphonic acid Compound 6 is useful for S1P-related diseases and exemplified by the lymphopenia in vivo response.
Test drugs, were prepared in a solution containing 3% (w/v) 2-hydroxy propyl β-cyclodextrin (HPBCD) and 1% DMSO to a final concentration of 1 mg/ml, and subcutaneously injected to female C57BL6 mice (CHARLES RIVERS) weighing 20-25 g at the dose of 10 mg/Kg. Blood samples were obtained by puncturing the submandibular skin with a Goldenrod animal lancet at different time intervals such as: 24, 48, 72 (and 96 h) post drug application. Blood was collected into microvettes (SARSTEDT) containing EDTA tripotassium salt. Lymphocytes in blood samples were counted using a HEMAVET Multispecies Hematology System, HEMAVET HV950FS (Drew Scientific Inc.). (Hale, J. et al Bioorg. & Med. Chem. Lett. 14 (2004) 3351

Bounds are passed on as bounds.

T1 sequence (P21453 whole entry): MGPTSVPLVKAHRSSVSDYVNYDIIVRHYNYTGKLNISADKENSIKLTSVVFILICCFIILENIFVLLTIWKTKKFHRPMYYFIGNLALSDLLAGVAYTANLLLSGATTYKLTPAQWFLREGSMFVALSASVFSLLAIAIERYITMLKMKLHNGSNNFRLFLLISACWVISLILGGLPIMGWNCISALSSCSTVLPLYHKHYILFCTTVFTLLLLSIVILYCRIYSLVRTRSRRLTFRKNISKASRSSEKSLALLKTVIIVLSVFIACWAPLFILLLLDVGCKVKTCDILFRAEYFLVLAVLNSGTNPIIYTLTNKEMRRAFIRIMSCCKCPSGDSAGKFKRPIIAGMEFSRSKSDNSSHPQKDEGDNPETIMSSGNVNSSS

A word on the EC50: it is the midpoint of the concentration-response curve. As to `O=P(O)(O)CCCNCc1ccc(OCCCCCc2ccccc2)c(-c2cccs2)c1` [Compound 6, [3-({4-[(5-phenylpentyl)oxy]-3-(2-thienyl)benzyl}amino)propyl]phosphonic acid], the EC50 at human S1P1 receptor was 1.3 nM. For the same compound, the Lymphopenia entry with blood lymphocytes (10 mg/kg in mice (24, 48, 72 Hours)) is on record as “induced”. For the same compound, in the assay with blood lymphocytes (mice, 10 mg/Kg subcutaneously, after 24 hours), the “lymphocyte count (number of lymphocytes)” value was < 1 10^3/μL blood. `COc1ccc(CCCCCOc2ccc(CNCCCP(=O)(O)O)cc2-c2ccco2)cc1Cl` [Compound 31, (3-{[4-{[5-(3-chloro-4-methoxyphenyl)pentyl]oxy}-3-(2-furyl)benzyl]amino}propyl)phosphonic acid]: at human S1P1 receptor, the EC50 is 8.4 nM.

Take `COc1ccc(CCCCCOc2ccc(CNCCCP(=O)(O)O)cc2-c2cccs2)cc1Cl` [Compound 32, (3-{[4-{[5-(3-chloro-4-methoxyphenyl)pentyl]oxy}-3-(2-thienyl)benzyl]amino}propyl)phosphonic acid]: the EC50 at human S1P1 receptor worked out at 6.5 nM. Turning to `COc1ccc(CCCCCOc2ccc(CNCCCP(=O)(O)O)cc2-c2ccco2)cc1` [Compound 33, (3-{[3-(2-furyl)-4-{[5-(4-methoxyphenyl)pentyl]oxy}benzyl]amino}propyl)phosphonic acid], the EC50 on human S1P1 receptor turned out to be 7.1 nM. Same read-out and setting: the value for `COc1cccc(CCCCCOc2ccc(CNCCCP(=O)(O)O)cc2-c2ccoc2)c1` [Compound 34, (3-{[3-(3-furyl)-4-{[5-(3-methoxyphenyl)pentyl]oxy}benzyl]amino}propyl)phosphonic acid] was 12.5 nM; that for `O=P(O)(O)CCCNCc1ccc(OCCCCCc2ccccc2)c(-c2cocn2)c1` [Compound 35, [3-({3-(1,3-oxazol-4-yl)-4-[(5-phenylpentyl)oxy]benzyl}amino)propyl]phosphonic acid] was 54.1 nM. Take `CC(CCNCc1ccc(OCCCCCc2ccccc2)c(-c2ccco2)c1)P(=O)(O)O` (stereo not drawn) [Compound 36, [3-({3-(2-furyl)-4-[(5-phenylpentyl)oxy]benzyl}amino)-1-methylpropyl]phosphonic acid]: the EC50 on human S1P1 receptor was 18.5 nM.

As to `O=[PH](O)CCCNCc1ccc(OCCCCCc2ccccc2)c(-c2cccs2)c1` [Compound 37, [3-({4-[(5-phenylpentyl)oxy]-3-(2-thienyl)benzyl}amino)propyl]phosphinic acid], the EC50 on human S1P1 receptor amounted to 52.6 nM. `O=P(O)(O)CCCNCc1ccc(OCCCCCc2ccccc2)c(-c2ccc(F)o2)c1` [Compound 38, [3-({3-(5-fluoro-2-furyl)-4-[(5-phenylpentyl)oxy]benzyl}amino)propyl]phosphonic acid]: the EC50 on human S1P1 receptor is 1.9 nM.

On to `O=P(O)(O)CCCNCc1ccc(OCCCCCc2cccc(Cl)c2)c(-c2ccco2)c1` [Compound 39, (3-{[4-{[5-(3-chlorophenyl)pentyl]oxy}-3-(2-furyl)benzyl]amino}propyl)phosphonic acid], for which, at human S1P1 receptor, the concentration giving a half-maximal response (EC50) is 32.8 nM. For the compound `Cc1cccc(CCCCCOc2ccc(CNCCCP(=O)(O)O)cc2-c2ccco2)c1` [Compound 40, (3-{[3-(2-furyl)-4-{[5-(3-methylphenyl)pentyl]oxy}benzyl]amino}propyl)phosphonic acid], the EC50 on human S1P1 receptor was determined as 34.9 nM. With `O=P(O)(O)C(F)(F)CCNCc1ccc(OCCCCCc2ccccc2)c(-c2ccc(F)o2)c1` [Compound 41, [1,1-difluoro-3-({3-(5-fluoro-2-furyl)-4-[(5-phenylpentyl)oxy]benzyl}amino)propyl]phosphonic acid], the EC50 on human S1P1 receptor was determined as 53.6 nM. As for `CC(NCCCP(=O)(O)O)c1ccc(OCCCCCc2ccccc2)c(-c2cccs2)c1` (stereo not drawn) [Compound 42, {3-[(1-{4-[(5-phenylpentyl)oxy]-3-(2-thienyl)phenyl}ethyl)amino]propyl}phosphonic acid], the EC50 at human S1P1 receptor was 16.4 nM. For `O=P(O)(O)CCCNCc1ccc(OCCCCCc2ccccc2)c(-n2cccn2)c1` [Compound 43, [3-({4-[(5-phenylpentyl)oxy]-3-(1H-pyrazol-1-yl)benzyl}amino)propyl]phosphonic acid], the EC50 on human S1P1 receptor was determined as 8.5 nM. Turning to `O=P(O)(O)CCCNCc1ccc(OCCCCCc2ccccc2)c(-n2cccc2)c1` [Compound 44, [3-({4-[(5-phenylpentyl)oxy]-3-(1H-pyrrol-1-yl)benzyl}amino)propyl]phosphonic acid], the EC50 at human S1P1 receptor turned out to be 3.4 nM. On the same count and under the same terms, the figure for `[2H]C([2H])(CCCCc1ccccc1)Oc1ccc(CNCCCP(=O)(O)O)cc1-c1ccco1` [Compound 45, [3-({3-(2-furyl)-4-[(5-phenylpentyl)oxy]benzyl}amino)propyl]phosphonic acid-d_2—] is 1.7 nM; for `O=P(O)(O)CCCNCc1ccc(NCCCCCc2ccccc2)c(-c2ccco2)c1` [Compound 46, [3-({3-(2-furyl)-4-[(5-phenylpentyl)amino]benzyl}amino)propyl]phosphonic acid] it is 1.5 nM. As for `O=P(O)(O)CCCNCc1ccc(NCCCCCc2ccccc2)c(-c2ncco2)c1` [Compound 47, [3-({3-(1,3-oxazol-2-yl)-4-[(5-phenylpentyl)amino]benzyl}amino)propyl]phosphonic acid], the EC50 on human S1P1 receptor was 15.6 nM. As for `O=P(O)(O)CCCNCc1ccc(NCCCCCc2ccccc2)c(-c2nccs2)c1` [Compound 48, [3-({4-[(5-phenylpentyl)amino]-3-(1,3-thiazol-2-yl)benzyl}amino)propyl]phosphonic acid], on human S1P1 receptor, the EC50 was found to be 17.4 nM.

As to `O=P(O)(O)CCCNCc1ccc(OCCCCCc2ccccc2F)c(-c2ccco2)c1` [Compound 49, (3-{[4-{[5-(2-fluorophenyl)pentyl]oxy}-3-(2-furyl)benzyl]amino}propyl)phosphonic acid], the EC50 at human S1P1 receptor is 1 nM.

With `O=P(O)(O)CCCNCc1ccc(OCCCCCc2ccccc2F)c(-c2ccoc2)c1` [Compound 50, (3-{[4-{[5-(2-fluorophenyl)pentyl]oxy}-3-(3-furyl)benzyl]amino}propyl)phosphonic acid], the EC50 on human S1P1 receptor was below 25 nM.

For `O=P(O)(O)CCCNCc1cc(-c2ccco2)c(OCCCCCc2ccccc2)cc1F` [Compound 51, [3-({2-fluoro-5-(2-furyl)-4-[(5-phenylpentyl)oxy]benzyl}amino)propyl]phosphonic acid], at human S1P1 receptor, the EC50 was determined as 1 nM.

Values taken from patent US8741875B2, “Compounds as receptor modulators with therapeutic utility” (Allergan, Inc., priority 2009, dated 2014).
